# Molecular target: T1, Dimer of Gag-Pol polyprotein [489-587] (Human immunodeficiency virus 1, UniProt P12497)
# T1 construct: 489-587
# Test: Protease Inhibition Assay
# Description: The inhibitory activities of the compounds toward HIV-1 PR were determined by sodium dodecyl sulfate-polyacrylamide gel electrophoresis (SDS-PAGE) assay. The IC50 values of active compounds were determined using the partially purified protease and the synthetic substrate Ac-Ser-Gln-AsnTyr-Pro-Ile-Val-NH2.
row,Structure (SMILES),IC50 [nM]
1,"Cc1ccccc1C[C@H](NC(=O)c1c(C)ccc(O)c1C)[C@H](O)C(=O)N1C[C@@H](Cl)C[C@H]1C(=O)NC(C)(C)C [(2S,4S)-N-tert-butyl-4-chloro-1-[(2S,3S)-2-hydroxy-3-[(3-hydroxy-2,6-dimethylphenyl)formamido]-4-(2-methylphenyl)butanoyl]pyrrolidine-2-carboxamide]",34.3
2,Cc1cccc(C[C@H](NC(=O)c2c(C)ccc(O)c2C)[C@H](O)C(=O)N2C[C@@H](Cl)C[C@H]2C(=O)NC(C)(C)C)c1,3.4
3,Cc1cccc(C[C@H](NC(=O)c2cc(C)cc(O)c2C)[C@H](O)C(=O)N2C[C@@H](Cl)C[C@H]2C(=O)NC(C)(C)C)c1,1.3
4,"Cc1c(O)cccc1C(=O)N[C@@H](Cc1ccc(O)cc1)[C@H](O)C(=O)N1C[C@@H](Cl)C[C@H]1C(=O)NC(C)(C)C [(2S,4S)-N-tert-butyl-4-chloro-1-[(2S,3S)-2-hydroxy-3-[(3-hydroxy-2-methylphenyl)formamido]-4-(4-hydroxyphenyl)butanoyl]pyrrolidine-2-carboxamide]",1.3
5,"Cc1cc(O)c(C)c(C(=O)N[C@@H](Cc2ccc3sccc3c2)[C@H](O)C(=O)N2C[C@@H](Cl)C[C@H]2C(=O)NC(C)(C)C)c1 [(2S,4S)-1-[(2S,3S)-4-(1-benzothiophen-5-yl)-2-hydroxy-3-[(3-hydroxy-2,5-dimethylphenyl)formamido]butanoyl]-N-tert-butyl-4-chloropyrrolidine-2-carboxamide]",1.5
6,"Cc1c(O)cccc1C(=O)N[C@@H](Cc1ccc2sccc2c1)[C@H](O)C(=O)N1C[C@@H](Cl)C[C@H]1C(=O)NC(C)(C)C [(2S,4S)-1-[(2S,3S)-4-(1-benzothiophen-5-yl)-2-hydroxy-3-[(3-hydroxy-2-methylphenyl)formamido]butanoyl]-N-tert-butyl-4-chloropyrrolidine-2-carboxamide]",1.4
7,"Cc1cc(O)c(C)c(C(=O)N[C@@H](Cc2ccc3ccccc3c2)[C@H](O)C(=O)N2C[C@@H](Cl)C[C@H]2C(=O)NC(C)(C)C)c1 [(2S,4S)-N-tert-butyl-4-chloro-1-[(2S,3S)-2-hydroxy-3-[(3-hydroxy-2,5-dimethylphenyl)formamido]-4-(naphthalen-2-yl)butanoyl]pyrrolidine-2-carboxamide]",0.8
8,"Cc1c(O)cccc1C(=O)N[C@@H](Cc1ccc(F)c(F)c1)[C@H](O)C(=O)N1C[C@@H](Cl)C[C@H]1C(=O)NC(C)(C)C [(2S,4S)-N-tert-butyl-4-chloro-1-[(2S,3S)-4-(3,4-difluorophenyl)-2-hydroxy-3-[(3-hydroxy-2-methylphenyl)formamido]butanoyl]pyrrolidine-2-carboxamide]",0.8
9,"Cc1c(O)cccc1C(=O)N[C@@H](Cc1ccc(F)cc1)[C@H](O)C(=O)N1C[C@@H](Cl)C[C@H]1C(=O)NC(C)(C)C [(2S,4S)-N-tert-butyl-4-chloro-1-[(2S,3S)-4-(4-fluorophenyl)-2-hydroxy-3-[(3-hydroxy-2-methylphenyl)formamido]butanoyl]pyrrolidine-2-carboxamide]",0.9
10,"Cc1cc(O)c(C)c(C(=O)N[C@@H](Cc2cc(F)cc(F)c2)[C@H](O)C(=O)N2C[C@@H](Cl)C[C@H]2C(=O)NC(C)(C)C)c1 [(3-Hydroxy-2,5-dimethylbenzoyl)-{2(S)-hydroxy-3(S)-amino-4-(3,5-difluoro)-phenylbutanoyl}-4(S)-Cl-Pro-NH-t-Bu]",1.2
11,"Cc1c(O)cccc1C(=O)N[C@@H](Cc1ccc(C(F)(F)F)cc1)[C@H](O)C(=O)N1C[C@@H](Cl)C[C@H]1C(=O)NC(C)(C)C [(2S,4S)-N-tert-butyl-4-chloro-1-[(2S,3S)-2-hydroxy-3-[(3-hydroxy-2-methylphenyl)formamido]-4-[4-(trifluoromethyl)phenyl]butanoyl]pyrrolidine-2-carboxamide]",0.6
12,"Cc1ccccc1C[C@H](NC(=O)c1cccc(O)c1C)[C@H](O)C(=O)N1C[C@@H](Cl)C[C@H]1C(=O)NC(C)(C)C [(2S,4S)-N-tert-butyl-4-chloro-1-[(2S,3S)-2-hydroxy-3-[(3-hydroxy-2-methylphenyl)formamido]-4-(2-methylphenyl)butanoyl]pyrrolidine-2-carboxamide]",4.5
13,"Cc1ccccc1C[C@H](NC(=O)c1ccc(C)c(O)c1C)[C@H](O)C(=O)N1C[C@@H](Cl)C[C@H]1C(=O)NC(C)(C)C [(2S,4S)-N-tert-butyl-4-chloro-1-[(2S,3S)-2-hydroxy-3-[(3-hydroxy-2,4-dimethylphenyl)formamido]-4-(2-methylphenyl)butanoyl]pyrrolidine-2-carboxamide]",49.9
14,Cc1c(O)cccc1C(=O)N[C@@H](Cc1cccc(C(F)(F)F)c1)[C@H](O)C(=O)N1C[C@@H](Cl)C[C@H]1C(=O)NC(C)(C)C [(3-Hydroxy-2-methylbenzoyl)-{2(S)-hydroxy-3(S)-amino-4-(3-trifluoromethyl)-phenylbutanoyl}-4(S)-Cl-Pro-NH-t-Bu],0.5
15,Cc1c(O)cccc1C(=O)N[C@@H](CCc1ccccc1)[C@H](O)C(=O)N1C[C@@H](Cl)C[C@H]1C(=O)NC(C)(C)C [(3-Hydroxy-2-methylbenzoyl)-(2(S)-hydroxy-3(S)-amino-5-phenylpentanoyl)-4(S)-Cl-Pro-NH-t-Bu],1.4
16,Cc1ccc(C[C@H](NC(=O)c2cccc(O)c2C)[C@H](O)C(=O)N2C[C@@H](Cl)C[C@H]2C(=O)NC(C)(C)C)cc1 [(3-Hydroxy-2-methylbenzoyl)-(2(S)-hydroxy-3(S)-amino-4-p-tolylbutanoyl)-4(S)-Cl-Pro-NH-t-Bu],0.9
17,"Cc1c(O)cccc1C(=O)N[C@@H](Cc1ccccc1F)[C@H](O)C(=O)N1C[C@@H](Cl)C[C@H]1C(=O)NC(C)(C)C [(2S,4S)-N-tert-butyl-4-chloro-1-[(2S,3S)-4-(2-fluorophenyl)-2-hydroxy-3-[(3-hydroxy-2-methylphenyl)formamido]butanoyl]pyrrolidine-2-carboxamide]",0.7

row,Structure (SMILES),IC50 [nM]
1,Cc1c(O)cc(F)cc1C(=O)N[C@@H](Cc1ccccc1)[C@H](O)C(=O)N1C[C@@H](Cl)C[C@H]1C(=O)NC(C)(C)C,1.7
2,Cc1c(O)cccc1C(=O)N[C@@H](Cc1cccc2ccccc12)[C@H](O)C(=O)N1C[C@@H](Cl)C[C@H]1C(=O)NC(C)(C)C [(3-Hydroxy-2-methylbenzoyl)-{2(S)-hydroxy-3(S)-amino-4-(alpha-naphtyl)-butanoyl}-4(S)-Cl-Pro-NH-t-Bu],1.5
3,Cc1ccc(C(=O)N[C@@H](Cc2ccccc2)[C@H](O)C(=O)N2C[C@@H](Cl)C[C@H]2C(=O)NC(C)(C)C)c(C)c1O,8.2
4,Cc1ccc(C(=O)N[C@@H](Cc2cccc(C(F)(F)F)c2)[C@H](O)C(=O)N2C[C@@H](Cl)C[C@H]2C(=O)NC(C)(C)C)c(C)c1O,3.5
5,Cc1ccc(O)c(C)c1C(=O)N[C@@H](Cc1ccc(C(F)(F)F)cc1)[C@H](O)C(=O)N1C[C@@H](Cl)C[C@H]1C(=O)NC(C)(C)C,3.9
6,"Cc1c(O)cccc1C(=O)N[C@@H](Cc1cc(F)cc(F)c1)[C@H](O)C(=O)N1C[C@@H](Cl)C[C@H]1C(=O)NC(C)(C)C [(3-Hydroxy-2-methylbenzoyl)-{2(S)-hydroxy-3(S)-amino-4-(3,5-difluoro)-phenylbutanoyl}-4(S)-Cl-Pro-NH-t-Bu]",0.8
7,Cc1cc(O)c(C)c(C(=O)N[C@@H](Cc2cccc(C(F)(F)F)c2)[C@H](O)C(=O)N2C[C@@H](Cl)C[C@H]2C(=O)NC(C)(C)C)c1,1.9
8,Cc1cccc(C[C@H](NC(=O)c2cccc(O)c2C)[C@H](O)C(=O)N2C[C@@H](Cl)C[C@H]2C(=O)NC(C)(C)C)c1 [(3-Hydroxy-2-methylbenzoyl)-(2(S)-hydroxy-3(S)-amino-4-m-tolylbutanoyl)-4(S)-Cl-Pro-NH-t-Bu],0.6
9,Cc1c(O)cccc1C(=O)N[C@@H](Cc1ccc(-c2ccccc2)cc1)[C@H](O)C(=O)N1C[C@@H](Cl)C[C@H]1C(=O)NC(C)(C)C [(3-Hydroxy-2-methylbenzoyl)-{2(S)-hydroxy-3(S)-amino-4-(4-phenyl)-phenylbutanoyl}-4(S)-Cl-Pro-NH-t-Bu],0.9
10,"Cc1ccc(C[C@H](NC(=O)c2ccc(C)c(O)c2C)[C@H](O)C(=O)N2C[C@@H](Cl)C[C@H]2C(=O)NC(C)(C)C)cc1 [(2S,4S)-N-tert-butyl-4-chloro-1-[(2S,3S)-2-hydroxy-3-[(3-hydroxy-2,4-dimethylphenyl)formamido]-4-(4-methylphenyl)butanoyl]pyrrolidine-2-carboxamide]",8.6
11,Cc1c(O)cc(F)cc1C(=O)N[C@@H](Cc1ccc2sccc2c1)[C@H](O)C(=O)N1C[C@@H](Cl)C[C@H]1C(=O)NC(C)(C)C [(5-Fluoro-3-hydroxy-2-methylbenzoyl)-{2(S)-hydroxy-3(S)-amino-4-(benzo[b]thiophene-5-yl)-butanoyl}-4(S)-Cl-Pro-NH-t-Bu],1.9
12,"Cc1ccc(O)c(C)c1C(=O)N[C@@H](Cc1cccc(C(F)(F)F)c1)[C@H](O)C(=O)N1C[C@@H](Cl)C[C@H]1C(=O)NC(C)(C)C [(2S,4S)-N-tert-butyl-4-chloro-1-[(2S,3S)-2-hydroxy-3-[(3-hydroxy-2,6-dimethylphenyl)formamido]-4-[3-(trifluoromethyl)phenyl]butanoyl]pyrrolidine-2-carboxamide]",4.6
13,Cc1ccc(C(=O)N[C@@H](Cc2ccc3ccccc3c2)[C@H](O)C(=O)N2C[C@@H](Cl)C[C@H]2C(=O)NC(C)(C)C)c(C)c1O,3.2
14,Cc1c(O)cccc1C(=O)N[C@@H](Cc1ccc2ccccc2c1)[C@H](O)C(=O)N1C[C@@H](Cl)C[C@H]1C(=O)NC(C)(C)C [(3-Hydroxy-2-methylbenzoyl)-{2(S)-hydroxy-3(S)-amino-4-(beta-naphtyl)-butanoyl}-4(S)-Cl-Pro-NH-t-Bu],1
15,"Cc1ccc(O)c(C)c1C(=O)N[C@@H](Cc1ccc2ccccc2c1)[C@H](O)C(=O)N1C[C@@H](Cl)C[C@H]1C(=O)NC(C)(C)C [(2S,4S)-N-tert-butyl-4-chloro-1-[(2S,3S)-2-hydroxy-3-[(3-hydroxy-2,6-dimethylphenyl)formamido]-4-(naphthalen-2-yl)butanoyl]pyrrolidine-2-carboxamide]",2.8
16,Cc1ccc(C[C@H](NC(=O)c2c(C)ccc(O)c2C)[C@H](O)C(=O)N2C[C@@H](Cl)C[C@H]2C(=O)NC(C)(C)C)cc1,3.6
